Results taken from US12202805B2, “Process for preparing (5S)-{[2-(4-carboxyphenyl)ethyl] |2-(2-{|3-chloro-4'-(trifluoromethyl)biphenyl-4-yl]methoxy}phenyl)ethyl]aminol-5,6,7,8-tetrahydroquinoline-2-carboxylic acid and its crystalline forms for use as pharmaceutically active compound” (Bayer Aktiengesellschaft, priority 2021, dated 2025).

Key:
[1] = Protein binding via Transil assay, monkey plasma; assay type: in vitro ADME
Description: (§1) Protein Binding of Comparative Example 11 and Comparative Example 1 was Analyzed Via Transil Assay, Described Below.
(§2) The distribution of a test substance between Transil® (phosphatidylcholine lipid bilayers immobilized on silica beads) and plasma is a characteristic feature of any pharmaceutical compound and is dependent on its extent of binding to plasma proteins. By comparing the distribution between Transil® and buffer with the distribution between Transil® and plasma of any species of interest, the unbound fraction in the plasma of the respective animal species can be calculated in vitro. The respective plasma and buffer concentrations were determined via a radioactivity analysis. A detailed description of the method and its validation was published by Schuhmacher et al. (2).

[2] = tested on: acetylcholine [ACh] rat model; assay: Acetylcholine [ACh] rat model (bronchodilation); conditions: in vivo
[3] = tested on: unilateral ventilated minipig model; assay: Unilateral ventilated minipig model as a proxy of VQ-mismatch; assay type: in vivo; conditions: inhaled application
[4] = tested on: chronic ovalbumin asthma mice model; assay: Chronic ovalbumin asthma mice model; conditions: mouse, in vivo
[5] = Protein binding via Transil assay, dog plasma; assay type: in vitro ADME
Description: as §1, §2

[6] = tested on: thromboxane and hypoxia challenged rats, pigs, and dogs; assay: Disease relevant animal models (thromboxane and hypoxia challenged), inhaled application, PAP; assay type: in vivo
[7] = Protein binding via Transil assay, minipig plasma; assay type: in vitro ADME; conditions: read-out: plasma fu (fraction unbound)
Description: as §1, §2

healthy male subjects = assay: E-2.1 bodyplethysmography: total specific airway resistance (sRaw) in healthy male subjects; assay type: in vivo, human
Description: Healthy White male subjects, aged 18 to 45 years and with a body mass index (BMI) above/equal 18.5 and below/equal 29.9 kg/m2 were treated in a clinical pharmacological phase I study on seven days with inhaled once daily doses of 480 μg or 1000 μg or 2000 μg (2 capsules of 1000 μg) (nominal dose) of dry powder formulations comprising example 2 or Placebo. The subjects inhaled the drug powder from capsules (see under C-1, e.g. tables 22 and 23) inserted into a handheld inhalation device by one deep inhalative breath. The dry powder formulation of the drug is dispersed into the airstream and fine particles are transported into the deep parts of the lung where it is intended to cause a vasodilation of the blood vessels in PH patients for a substantial reduction of increased blood pressure in the central pulmonary blood vessels in PAH patients or other subtypes of PH. This effect cannot be shown in subjects with healthy lungs. In addition inhaled drug causes a dilation of the bronchial airways and thus also improves disease states of lung diseases in PH patients with pathological bronchoconstriction. This effect was measured via bodyplethysmography as reduction of Specific Airway Resistance in healthy subjects. […]

[8] = tested on: patients with PAH or CTEPH; assay: E-2.4 inhaled single doses in patients with PAH or CTEPH: PVR, mPAP (right heart catheterization), safety; assay type: in vivo, human
Description: E-2.4 Inhaled Administration of Single Doses to Patients with PAH or CTEPH to Investigate the Reduction of Pulmonary Vascular Resistance (PVR)
Patients with PAH or CTEPH aged 18 to 80 years were treated in a clinical phase 1b study with orally inhaled single doses* of 240 μg (2 capsules of 120 μg), 480 μg (1 capsule of 480 μg), 1000 μg (1 capsule of 1000 μg), 2000 μg (2 capsules of 1000 μg) or 4000 μg (4 capsules of 1000 μg) of a dry powder formulation comprising example 4 (see C-1, e.g. tables 17 and 20) inserted into a handheld inhalation device, inhaled by deep inhalative breath into the deep parts of the lung (*single dose means the administration of one dosage form/capsule as well as administration of two or more dosage forms/capsules simultaneously or consecutively within a short time period). The included patients had no background treatment with standard of care (SoC) medication for PAH or CTEPH (such as endothelin antagonists, prostanoids, phosphodiesterase type 5 inhibitor or soluble guanylate cyclase stimulators). Patients in this study underwent invasive right heart catheterization as medically indicated routine diagnostic. Primary objective of the study was to investigate the peak percent reduction from baseline in PVR. Patients had to have a baseline pulmonary artery pressure (mPAP) of ≥25 mmHg and a PVR of ≥400 dyn·sec·cm^−5 (5 Wood Units) and were not to show vaso-responsiveness to initial iNO inhalation testing to be included in the per protocol analysis. Plasma concentrations (pharmacokinetics) of the administered drug at several time points after administration were measured and safety and tolerability was assessed.
The study is divided into two parts, Part A and Part B. In Part A escalating aforementioned single doses were administered to patients without background treatment with standard of care (SoC) medication for PAH or CTEPH (such as endothelin antagonists, prostanoids, phosphodiesterase type 5 inhibitor or soluble guanylate cyclase stimulators). In Part B, after finalization of Part A, a selected dose from PartA will be tested in further patients without background SoC treatment (group 1) and additionally in patients on monotherapy with SoC (group 2) and on dual combination therapy with SoC (group 3).
The PVR is a derived parameter from parameters directly measured during the right heart catheterization procedure. The direct parameters included in the calculation are: mean pulmonary arterial pressure [mmHg](mPAP), pulmonary capillary wedge pressure [mmHg] (PCWP), and cardiac output [1/min] (CO). The PVR is calculated according to the formula: PVR [dyn*sec*cm^−5]=80*(mPAP˜PCWP)/CO.

sGC = assay: E-2.2 inhalative administration in healthy male subjects for 14 days: cGMP; assay type: in vivo, human; conditions: 1000 μg once daily inhaled
Description: E-2.2 Inhalative Administration of sGC Activators in Healthy Male Subjects for 14 Days to Evaluate Steady State Pharmacokinetics
Healthy white male subjects, aged 18 to 45 years and with a body mass index (BMI) above/equal 18.5 and below/equal 29.9 kg/m2 were treated in a clinical pharmacological phase I study for 14 days with inhaled once daily doses of 1000 μg (nominal dose) of Placebo or of dry powder formulation containing example 4. The subjects inhaled the drug powder from capsules (see under C, e.g. tables 17 and 20) inserted into a handheld inhalation device by one deep inhalative breath into the deep parts of the lung. The intended substantial reduction of increased blood pressure in the central pulmonary blood vessels cannot be evaluated in subjects without pathophysiological impairment of lung function. As surrogate for drug concentration in the lung, plasma concentrations over time have been analysed. […] Drug activity/target engagement in healthy men was controlled in the healthy subjects by analysing blood samples for cGMP.

O=C(O)c1ccc(CCN(CCc2ccccc2OCc2ccc(-c3ccc(C(F)(F)F)cc3)cc2Cl)[C@H]2CCCc3nc(C(=O)O)ccc32)cc1 [comparative example 11, (5S)-5-{[2-(4-carboxyphenyl)ethyl][2-(2-{[3-chloro-4′-(trifluoromethyl)[biphenyl]-4-yl]methoxy}phenyl)ethyl]amino}-5,6,7,8-tetrahydroquinoline-2-carboxylic acid]
free fraction, times lower than comparative example 1 [1]: 2 times | effect on ventilation [2]: bronchodilatory effect | effect on PAP and oxygenation [3]: lowered PAP without negative effects on oxygenation | effect on airway hyper-responsiveness and inflammation [4]: inhibitory effect on airway hyper-responsiveness and inflammation | fraction unbound, times lower than comparative example 1 [5]: 10 times | effect on elevated PAP [6]: selectively decreased elevated PAP

O=C(O)c1ccc(CCN(CCc2ccccc2OCc2ccc(-c3ccc(C(F)(F)F)cc3)cc2Cl)[C@H]2CCCc3nc(C(=O)O)ccc32)cc1 [example 2, (5S)—{[2-(4-Carboxyphenyl)ethyl][2-(2-{[3-chloro-4′-(trifluoromethyl)biphenyl-4-yl]methoxy}phenyl)-ethyl]amino}-5,6,7,8-tetrahydroquinoline-2-carboxylic acid as Monohydrate II]
fraction unbound [7]: 0.00348 | total specific airway resistance (healthy male subjects; 480 μg, 0 D 06 H 00 M): 0.800 ± 0.187 kPa/sec | total specific airway resistance (healthy male subjects; 2000 μg, 7 D 06 H 00 M): 0.730 ± 0.151 kPa/sec

O=C(O)c1ccc(CCN(CCc2ccccc2OCc2ccc(-c3ccc(C(F)(F)F)cc3)cc2Cl)[C@H]2CCCc3nc(C(=O)O)ccc32)cc1 [example 4, (5S)—{[2-(4-Carboxyphenyl)ethyl][2-(2-{[3-chloro-4′-(trifluoromethyl)biphenyl-4-yl]methoxy}phenyl)-ethyl]amino}-5,6,7,8-tetrahydroquinoline-2-carboxylic acid as Monohydrate I]
changes of systemic blood pressure, heart rate and oxygen saturation ([8]; at any dose): did not represent a safety concern | tolerability ([8]; including the highest dose of 4000 μg): good tolerability | systemic cGMP ([8]; patients with PAH or CTEPH): Increase | duration of sustained effect with no decrease in response ([8]; until end of the measurement period): ≥ 3 h | steady state of cGMP concentration reached after days of treatment (sGC): ≤ 11 days
